Measured values taken from publication PMC11079024, “Identification of a family of species-selective complex I inhibitors as potential anthelmintics” (Nature Communications, 2024).
Where two headings read alike, the source gives them in different places.

How the values were obtained:
[1] = test system: ben-1 mutant (ECA882) C. elegans; test: microbe, parasite or virus in culture; conditions: Caenorhabditis elegans
How it was run: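 Development and viability scored from single well images as total worm pixels divided by the matching DMSO control value, mean of ≥3 replicates. Worms added as synchronized L1s to HB101 suspension in liquid NGM with compound (1% DMSO v/v), grown 6 days at 20 °C with shaking.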

[2] = biological target: B. taurus (heart) complex I (Bos taurus, UniProt P03887+P17694+P42026); test: biochemical; format: biochemical; conditions: for IC50: B. taurus heart mitochondria, read-out: B. taurus Complex I IC50; for Log IC50 B. taurus complex I: log10 of IC50 in µM, B. taurus mitochondria
B. taurus (heart) complex I, sequence (P03887 whole entry): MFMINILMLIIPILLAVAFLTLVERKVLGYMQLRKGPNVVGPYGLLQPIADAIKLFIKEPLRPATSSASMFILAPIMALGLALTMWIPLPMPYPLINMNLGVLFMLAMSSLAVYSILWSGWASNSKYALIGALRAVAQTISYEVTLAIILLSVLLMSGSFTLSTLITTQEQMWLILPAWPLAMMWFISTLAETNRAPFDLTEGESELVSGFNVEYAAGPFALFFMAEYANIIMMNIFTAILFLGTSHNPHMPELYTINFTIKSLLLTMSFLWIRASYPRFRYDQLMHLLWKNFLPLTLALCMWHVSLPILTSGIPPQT
B. taurus (heart) complex I, sequence (P17694 34-463): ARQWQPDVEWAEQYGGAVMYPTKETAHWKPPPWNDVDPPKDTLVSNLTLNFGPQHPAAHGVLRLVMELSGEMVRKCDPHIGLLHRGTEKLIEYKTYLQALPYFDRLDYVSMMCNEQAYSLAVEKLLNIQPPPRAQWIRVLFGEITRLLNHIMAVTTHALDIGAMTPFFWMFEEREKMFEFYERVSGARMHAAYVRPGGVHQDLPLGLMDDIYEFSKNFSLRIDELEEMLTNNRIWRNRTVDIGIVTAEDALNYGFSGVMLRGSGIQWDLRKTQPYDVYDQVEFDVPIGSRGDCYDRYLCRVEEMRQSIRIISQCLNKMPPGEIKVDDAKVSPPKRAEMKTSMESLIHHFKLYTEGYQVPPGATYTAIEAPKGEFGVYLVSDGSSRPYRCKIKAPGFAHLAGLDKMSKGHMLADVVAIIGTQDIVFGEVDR
B. taurus (heart) complex I, sequence (P42026 38-216): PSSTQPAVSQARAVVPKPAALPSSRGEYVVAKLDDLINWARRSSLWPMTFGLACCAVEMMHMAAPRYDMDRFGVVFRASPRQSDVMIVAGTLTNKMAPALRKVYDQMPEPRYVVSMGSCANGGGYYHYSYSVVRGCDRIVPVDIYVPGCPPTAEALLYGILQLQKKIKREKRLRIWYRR
How it was run: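 Complex I activity followed as DCIP reduction (600 nm, 30 s reads, 15 min) with 80 μM NADH and 60 μM decylubiquinone in 25 mM KPi pH 7.5 containing 2 μM antimycin A and 2 mM KCN. Freeze-thawed mouse or bovine heart mitochondria at 0.2 mg/mL; initial-rate percent of solvent control, single-point 100 μM or dose-response.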

[3] = test system: L1 wild-type C. elegans; conditions: […]; for Screen "Hit": hit = relative motility below 0.25 3 hours after removal of KCN; for KCN survival assay value relative to DMSO control, Mean: mean of replicates
[4] = in vitro; conditions: human
[5] = test system: L1 wild-type C. elegans; test: microbe, parasite or virus in culture; conditions: Caenorhabditis elegans
[6] = read-out: C. elegans (ben-1) Development & Viability Assay LC50
[7] = read-out: C. elegans ben-1 log10 LC50 (converted)
[8] = estimated from fitted dose-response curves
[9] = HEK293 Cell Viability Assay LC50, HEK293 cells, estimated from fitted dose-response curves, mean of at least two biological replicates
[10] = read-out: C. elegans KCN Survival Assay LC50, estimated from fitted dose-response curves, mean of at least two biological replicates

SMILES	LC50 [1, 6] [µM]	LC50 [1, 7] [µM]	Complex I IC50 ~Fold Change ([2]; B. taurus complex I IC50 relative to C. elegans complex I IC50)	IC50 [2, 8] [µM]	B. taurus: C. elegans IC50 Fold Change (Complex I IC50 ~Fold Change) ([2]; complex I IC50 ratio bovine heart / C. elegans)	IC50 Fold change ([2]; fold-change in IC50 between B. taurus and C. elegans complex I)	Log IC50 B. taurus complex I [2] [µM]	Screen "Hit" ([3]; 50 μM compound)	Relative Motility ([3]; 50 μM compound, worm motility 3 hours after removal of KCN, relative to DMSO controls, single biological replicate)	KCN survival assay value relative to DMSO control, Mean ([3]; dose 3.1 µM)	KCN survival assay value relative to DMSO control, Mean ([3]; dose 6.3 µM)	KCN survival assay value relative to DMSO control, Mean ([3]; dose 12.5 µM)	KCN survival assay value relative to DMSO control, Mean ([3]; dose 25 µM)	KCN survival assay value relative to DMSO control, Mean ([3]; dose 50 µM)	CC50 at 2 days ([4]; HEK293 Cell Viability Assay LC50) [µM]	LC50 ([5]; read-out: C. elegans KCN Survival Assay LC50) [µM]	CC50 at 2 days [4, 9] [µM]	LC50 [5, 10] [µM]	IC50 [2] [µM]	CC50 at 2 days ([4]; HEK293 Cell Viability Assay LC50, HEK293 cells, estimated from fitted dose-response curves) [µM]
Cc1nc2ccccc2n1Cc1ccc(Cl)cc1 [STK697993]	40.1	40.1	2.72	0.3	2.72	2.72	-0.52	Y (hits were identified as compounds that reduced relative motility below 0.25 (75% reduction))	0.000	1.037	1.001	0.717	0.059	0.046	> 100	8.18	–	–	–	–
CCn1c(C(C)c2ccc(CC(C)C)cc2)nc2ccccc21 (stereo not shown) [STK951902]	644	644	–	12.5	–	–	1.10	Y (hits were identified as compounds that reduced relative motility below 0.25 (75% reduction))	–	–	–	–	–	–	–	–	31.7	8.7	–	–
CC(C)Cc1ccc(C(C)c2nc3ccccc3n2C(C)C)cc1 (stereo not shown) [STK951903]	731	731	–	–	–	–	1.17	Y (hits were identified as compounds that reduced relative motility below 0.25 (75% reduction))	–	–	–	–	–	–	–	–	–	25.1	14.7	29.2
C=CCn1c(C(C)c2ccc(CC(C)C)cc2)nc2ccccc21 (stereo not shown) [STL020755]	285	284	–	16.8	–	–	1.23	Y (hits were identified as compounds that reduced relative motility below 0.25 (75% reduction))	–	–	–	–	–	–	–	–	49.5	9.97	–	–
